In patent publication US20230139445A1, “BACTERIAL CELLS WITH IMPROVED TOLERANCE TO DIACIDS” (priority 2016, published 2023):
Read-outs that look alike come from different tables or passages of the source.

Experiments:
[1] = test system: Escherichia coli K-12 MG1655 and evolved isolates; format: cell-based; details: 55 g/L malic acid
Outline: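 Wild-type MG1655 and evolved isolates, precultured overnight in M9 + 1% glucose at 37 °C, were diluted into M9 + 1% glucose. Growth at 37 °C, 225 rpm, scanned every 15 min; pixel values calibrated to OD600. Diacids tested as sodium salts or neutralized to pH 7.0.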

[2] = test system: Escherichia coli K-12 MG1655; test: Growth of K-12 MG1655 in varying concentrations of fumaric, itaconic, malic and succinic acid, Growth Profiler; format: cell-based
Experimental: Five colonies from wild-type K-12 MG1655 and 10 individual colonies deriving from each population were inoculated into 300 μL M9+1% glucose in 96 well deepwell plates and incubated in a 300 rpm plate shaker at 37° C. The next day, cells were diluted 10× in M9+1% glucose and 30 μL was transferred into clear-bottomed 96 well half-deepwell plates (with rectangular wells) containing M9+1% glucose and M9+1% glucose+52.78 g/L glutaric acid or 55.56 g/L adipic acid, such that the final concentration of glutaric acid or adipic acid was 47.5 g/L or 50 g/L, respectively. In addition, cryogenic glycerol stocks of the overnight culture were saved in a 96 well plate format. Half deepwell plates were incubated at 37° C. with 225 rpm shaking in a Growth Profiler (Enzyscreen), with optical scans of the plates taken at 15 minute intervals. Green pixel values integrated over a 1 mm diameter circular area in each well were converted to OD600 values using a previously determined calibration between OD600 and green pixel values.
Additionally, each evolved isolate was tested for cross-tolerance toward other dicarboxylic acids of interest. […] All diacids tested were either the neutral sodium salts, or the free diacid was neutralized with sodium hydroxide to pH 7.0 for testing.

## O=C(O)CC(O)C(=O)O (centres unmarked) [malic acid]
[1]; strain ADIP1-1
  growth rate μ (mean): 0.333 h⁻¹
  lag time tlag (mean): 12.8 h
[1]; strain ADIP1-9
  growth rate μ (mean): 0.336 h⁻¹
  lag time tlag (mean): 10.7 h
[1]; strain ADIP2-5
  growth rate μ (mean): 0.338 h⁻¹
  lag time tlag (mean): 17.9 h
[1]; strain ADIP2-6
  growth rate μ (mean): 0.348 h⁻¹
  lag time tlag (mean): 16.8 h
[1]; strain ADIP2-10
  growth rate μ (mean): 0.347 h⁻¹
  lag time tlag (mean): 16.8 h
[1]; strain ADIP3-2
  growth rate μ (mean): 0.318 h⁻¹
  lag time tlag (mean): 10.7 h
[1]; strain ADIP3-4
  growth rate μ (mean): 0.347 h⁻¹
  lag time tlag (mean): 9.9 h
[1]; strain ADIP3-8
  growth rate μ (mean): 0.329 h⁻¹
  lag time tlag (mean): 11.4 h
[1]; strain ADIP4-1
  growth rate μ (mean): 0.275 h⁻¹
  lag time tlag (mean): 12.1 h
[1]; strain ADIP4-8
  growth rate μ (mean): 0.238 h⁻¹
  lag time tlag (mean): 13.4 h
[1]; strain ADIP5-2
  growth rate μ (mean): 0.299 h⁻¹
  lag time tlag (mean): 10.1 h
[1]; strain ADIP5-6
  growth rate μ (mean): 0.404 h⁻¹
  lag time tlag (mean): 10.2 h
[1]; strain ADIP6-3
  growth rate μ (mean): 0.295 h⁻¹
  lag time tlag (mean): 11.6 h
[1]; strain ADIP6-9
  growth rate μ (mean): 0.250 h⁻¹
  lag time tlag (mean): 12.7 h
[1]; strain ADIP6-10
  growth rate μ (mean): 0.323 h⁻¹
  lag time tlag (mean): 10.0 h
[1]; strain ADIP7-2
  growth rate μ (mean): 0.329 h⁻¹
  lag time tlag (mean): 10.3 h
[1]; strain ADIP7-5
  growth rate μ (mean): 0.326 h⁻¹
  lag time tlag (mean): 10.2 h
[1]; strain ADIP8-3
  growth rate μ (mean): 0.194 h⁻¹
  lag time tlag (mean): 14.4 h
[1]; strain ADIP8-7
  growth rate μ (mean): 0.202 h⁻¹
  lag time tlag (mean): 14.9 h
[1]; strain ADIP8-10
  growth rate μ (mean): 0.202 h⁻¹
  lag time tlag (mean): 14.2 h
[1]; strain GLUT1-3
  growth rate μ (mean): 0.294 h⁻¹
  lag time tlag (mean): 13.5 h
[1]; strain GLUT1-9
  growth rate μ (mean): 0.259 h⁻¹
  lag time tlag (mean): 15.3 h
[1]; strain GLUT1-10
  growth rate μ (mean): 0.286 h⁻¹
  lag time tlag (mean): 19.2 h
[1]; strain GLUT2-1
  growth rate μ (mean): 0.273 h⁻¹
  lag time tlag (mean): 13.7 h
[1]; strain GLUT2-9
  growth rate μ (mean): 0.270 h⁻¹
  lag time tlag (mean): 12.5 h
[1]; strain GLUT2-10
  growth rate μ (mean): 0.282 h⁻¹
  lag time tlag (mean): 12.2 h
[1]; strain GLUT3-5
  growth rate μ (mean): 0.257 h⁻¹
  lag time tlag (mean): 15.4 h
[1]; strain GLUT3-7
  growth rate μ (mean): 0.234 h⁻¹
  lag time tlag (mean): 15.5 h
[1]; strain GLUT3-9
  growth rate μ (mean): 0.252 h⁻¹
  lag time tlag (mean): 20.5 h
[1]; strain GLUT4-1
  growth rate μ (mean): 0.264 h⁻¹
  lag time tlag (mean): 15.9 h
[1]; strain GLUT4-4
  growth rate μ (mean): 0.264 h⁻¹
  lag time tlag (mean): 16.5 h
[1]; strain GLUT4-10
  growth rate μ (mean): 0.250 h⁻¹
  lag time tlag (mean): 15.6 h
[1]; strain GLUT5-4
  growth rate μ (mean): 0.272 h⁻¹
  lag time tlag (mean): 15.3 h
[1]; strain GLUT5-5
  growth rate μ (mean): 0.275 h⁻¹
  lag time tlag (mean): 16.6 h
[1]; strain GLUT5-9
  growth rate μ (mean): 0.246 h⁻¹
  lag time tlag (mean): 16.4 h
[1]; strain GLUT6-4
  growth rate μ (mean): 0.251 h⁻¹
  lag time tlag (mean): 14.5 h
[1]; strain GLUT6-5
  growth rate μ (mean): 0.241 h⁻¹
  lag time tlag (mean): 13.8 h
[1]; strain GLUT6-10
  growth rate μ (mean): 0.245 h⁻¹
  lag time tlag (mean): 14.8 h
[1]; strain GLUT7-2
  growth rate μ (mean): 0.275 h⁻¹
  lag time tlag (mean): 16.1 h
[1]; strain GLUT7-6
  growth rate μ (mean): 0.247 h⁻¹
  lag time tlag (mean): 21.9 h
[1]; strain GLUT7-7
  growth rate μ (mean): 0.185 h⁻¹
  lag time tlag (mean): 19.1 h
[1]; strain GLUT8-5
  growth rate μ (mean): 0.180 h⁻¹
  lag time tlag (mean): 15.8 h
[1]; strain GLUT8-6
  growth rate μ (mean): 0.208 h⁻¹
  lag time tlag (mean): 32.7 h
[1]; strain GLUT8-9
  growth rate μ (mean): 0.192 h⁻¹
  lag time tlag (mean): 47.7 h
[1]; strain MG1655 (Table 26)
  growth rate μ (mean): 0.235 h⁻¹
  lag time tlag (mean): 17.1 h
[1]; strain MG1655 (Table 27)
  growth rate μ (mean): 0.222 h⁻¹
  lag time tlag (mean): 16.5 h
[2]; growth rate of K-12 MG1655, 10 g/L diacid (sodium salt)
  μ (mean): 0.686 h^1
[2]; growth rate of K-12 MG1655, 20 g/L diacid (sodium salt)
  μ (mean): 0.639 h^1
[2]; growth rate of K-12 MG1655, 30 g/L diacid (sodium salt)
  μ (mean): 0.526 h^1
[2]; growth rate of K-12 MG1655, 40 g/L diacid (sodium salt)
  μ (mean): 0.410 h^1
[2]; growth rate of K-12 MG1655, 50 g/L diacid (sodium salt)
  μ (mean): 0.287 h^1
[2]; growth rate of K-12 MG1655, 60 g/L diacid (sodium salt)
  μ (mean): 0.154 h^1
[2]; lag time of K-12 MG1655, 10 g/L diacid (sodium salt)
  tlag (mean): 5.9 h
[2]; lag time of K-12 MG1655, 20 g/L diacid (sodium salt)
  tlag (mean): 6.6 h
[2]; lag time of K-12 MG1655, 30 g/L diacid (sodium salt)
  tlag (mean): 8.0 h
[2]; lag time of K-12 MG1655, 40 g/L diacid (sodium salt)
  tlag (mean): 11.1 h
[2]; lag time of K-12 MG1655, 50 g/L diacid (sodium salt)
  tlag (mean): 16.9 h
[2]; lag time of K-12 MG1655, 60 g/L diacid (sodium salt)
  tlag (mean): 28.3 h
